In ChEMBL document CHEMBL4825748, “Rapid Evaluation of Small Molecule Cellular Target Engagement with a Luminescent Thermal Shift Assay” (ACS Med Chem Lett, 2021):
Activity calls are given as the source filed them. No cut-off for these calls is given here.

How the values were obtained:
[1] = system: Cellular tumor antigen p53 (Homo sapiens), P04637 [R273H]; test: Binding affinity to HiBiT-tagged p53 R273H mutant in human MDA-MB-468 cells assessed as p53 refolding by measuring change in melting temperature at 2.5 to 10 uM by luminescence based BiTSA assay; format: cell-based; settings: dose 2.5-10 µM
[2] = target: T1, 5'-AMP-activated protein kinase subunit beta-1 (Homo sapiens) (UniProt Q9Y478); test: Binding affinity to HiBiT-tagged PRKAB1 (unknown origin) assessed as shift in melting/aggregation temperature by luminescence based BiTSA assay
T1 sequence (whole entry): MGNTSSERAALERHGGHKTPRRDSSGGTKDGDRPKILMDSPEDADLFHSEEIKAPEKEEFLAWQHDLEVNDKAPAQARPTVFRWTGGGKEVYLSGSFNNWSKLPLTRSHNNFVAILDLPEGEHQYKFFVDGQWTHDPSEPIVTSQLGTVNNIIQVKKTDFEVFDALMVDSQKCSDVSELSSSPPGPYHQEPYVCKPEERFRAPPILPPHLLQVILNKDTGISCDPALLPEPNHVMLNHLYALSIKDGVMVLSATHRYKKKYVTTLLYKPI

[3] = system: Cellular tumor antigen p53 (Homo sapiens), P04637 [R273H]; test: Binding affinity to HiBiT-tagged p53 R273H mutant in human MDA-MB-468 cells assessed as p53 refolding by measuring change in melting temperature at 25 to 100 uM by luminescence based BiTSA assay; format: cell-based; settings: dose 25-100 µM
[4] = system: GTPase KRas (Homo sapiens), P01116 [G12C]; test: Binding affinity to KRAS G12C mutant (unknown origin) by traditional Western blot CETSA analysis
Chain of GTPase KRas (Homo sapiens), P01116 [G12C] (P01116 whole entry G12C): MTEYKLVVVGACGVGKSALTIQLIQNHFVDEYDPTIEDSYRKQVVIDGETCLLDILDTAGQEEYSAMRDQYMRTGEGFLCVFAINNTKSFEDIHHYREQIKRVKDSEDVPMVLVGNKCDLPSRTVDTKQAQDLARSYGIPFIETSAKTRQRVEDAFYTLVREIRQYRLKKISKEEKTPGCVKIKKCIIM

[5] = system: GTPase KRas (Homo sapiens), P01116 [G12C]; test: Binding affinity to HiBiT-tagged KRAS G12C mutant in human NCI-H358 cells assessed as stabilization by measuring luminescence signal by BiTSA-ITDR assay; format: cell-based
[6] = target: Mitogen-activated protein kinase 14 (Homo sapiens) (UniProt Q16539); test: Binding affinity to HiBiT-tagged MAPK14 (unknown origin) assessed as shift in melting/aggregation temperature at 10 uM by luminescence based BiTSA assay
Chain of Mitogen-activated protein kinase 14 (Homo sapiens) (Q16539 whole entry): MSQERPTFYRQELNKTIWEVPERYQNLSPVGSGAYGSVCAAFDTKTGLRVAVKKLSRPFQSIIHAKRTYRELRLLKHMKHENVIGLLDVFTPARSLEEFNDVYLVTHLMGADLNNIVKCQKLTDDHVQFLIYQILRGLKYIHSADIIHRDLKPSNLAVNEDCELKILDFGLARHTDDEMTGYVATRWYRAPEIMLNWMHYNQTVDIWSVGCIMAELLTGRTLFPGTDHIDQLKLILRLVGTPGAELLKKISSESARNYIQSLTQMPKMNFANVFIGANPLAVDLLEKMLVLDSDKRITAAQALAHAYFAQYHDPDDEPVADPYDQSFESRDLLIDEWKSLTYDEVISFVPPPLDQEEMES

`CN(C)CCCNc1nc(CN2CCN(C(c3ccc(Cl)cc3)c3ccc(Cl)cc3)CC2)nc2ccccc12` was tested, and the Activity [1] was “inactive”.

With `O[C@@H]1CO[C@H]2[C@@H]1OC[C@H]2Oc1nc2nc(-c3ccc(-c4ccccc4)cc3)c(Cl)cc2[nH]1` the Activity [2] was “inactive”.

`COCC1(CO)C(=O)C2CCN1CC2` (stereo unspecified) was tested, and the Activity [3] was “inactive”.

`C=CC(=O)N1CCN(c2ncnc3c(F)c(-c4c(O)cccc4F)c(Cl)cc23)CC1` was tested, and the Activity [4] was “Active” and the Activity [5] was “inactive”.

`Cn1c(NC[C@@H](N)Cc2ccccc2)nc(-c2ccncc2)c(-c2ccc3ccccc3c2)c1=O` showed a Tm [6] of 12.4 °C.
